In general, melting point refers to the temperature, or range, at which the solid turns liquid.

Turning to `Cc1ccc(-c2ccc(Cl)cc2Cl)c(=O)n1C(F)F` [Compound No. 1-8, 3-(2,4-dichlorophenyl)-1-difluoromethyl-6-methyl-2(1H)-pyridone], the melting point lay in the range of 83 to 85 °C.
To `Cn1c(C(F)(F)F)ccc(-c2cc(S)c(Cl)cc2F)c1=O` [Compound No. 1-42, 3-(4-chloro-2-fluoro-5-mercaptophenyl)-1-methyl-6-trifluoromethyl-2(1H)-pyridone] belongs 141 to 142 °C.
To `Cn1c(C(F)(F)F)ccc(-c2cc(N)c(Cl)cc2F)c1=O` [Compound No. 1-59, 3-(5-amino-4-chloro-2-fluorophenyl)-1-methyl-6-trifluoromethyl-2(1H)-pyridone] belongs 155 to 157 °C; to `Cc1cc(-c2cc(O)c(Cl)cc2F)c(=O)n(C)c1C(F)(F)F` [Compound No. 1-79, 3-(4-chloro-2-fluoro-5-hydroxyphenyl)-1,5-dimethyl-6-trifluoromethyl-2(1H)-pyridone], 207 to 208 °C; to `CC(=O)Sc1cc(-c2ccc(C(F)(F)F)n(C)c2=O)c(F)cc1Cl` [Compound No. 1-85, 3-(5-acetylthio-4-chloro-2-fluorophenyl)-1-methyl-6-trifluoromethyl-2(1H)-pyridone], 91 to 92 °C.

These data come from US6472348B1, “Pyridone derivatives and herbicides” (Kumiai Chemical Industry Co., Ltd., priority 1996, dated 2002).
